Assay results published in paper PMC5908295 (Oncotarget, 2018).

Columns and labels:
FLT3 (ITD) [1] = molecular target: FLT3 (ITD) (Homo sapiens, UniProt P36888, ITD); assay: KINOMEscan Kd (DiscoverX); type: binding
Experimental: (§1) Dissociation constants (Kd) and inhibition levels of FLT3 mutants were measured at DiscoverX using the KINOMEscan^TM Profiling Service (KdELECT).

FLT3 (ITD) [2] = molecular target: FLT3 (ITD) (Homo sapiens, UniProt P36888); assay: KINOMEscan Kd (DiscoverX); type: binding; details: comparison of Kd
Experimental: as §1

OCI-AML-3 = assay: MTS viability assay, 72 h; details: Homo sapiens, OCI-AML-3, 72 h
Experimental: (§4) 15-25 ×10^3 of MV-4-11, MOLM-13, MOLM-14, MOLM-16, KG-1, Eol-1, SKM-1, PL-21, GDM-1, SKNO-1, RS4;11, Kasumi-3 and Kasumi-6 cells were seeded in 150 μL of culture medium onto individual wells in a 96 well plates, in triplicates. On the same day, 50 μL of medium containing tested inhibitor was added to the wells. Each compound was tested at 8 concentrations, in triplicates. As a negative control, the medium containing 0.1% DMSO was used. […] Staurosporine was used at 10 μM as a positive control. One the day of drug addition, basal signal from untreated cells was measured from in triplicate to determine time zero (T0). […] GI50 and LC50 values were extrapolated from a variable (four-parameter) dose-response curve fitted in GraphPad Prism.

SKNO-1 = assay: MTS viability assay, 72 h; details: SKNO-1, 72 h
Experimental: as §4

MOLM-6 = assay: MTS viability assay, 72 h; details: 72 h
Experimental: as §4

KASUMI-6 = assay: MTS viability assay, 72 h; details: 72 h
Experimental: as §4

FLT3wt = FLT3wt (Homo sapiens, UniProt P36888); assay: KINOMEscan Kd (DiscoverX); type: binding
MOLM-13 xenografts = assay: MOLM-13 subcutaneous xenograft; type: in vivo; details: MOLM-13, SCID mice; AC220 10 mg/kg QD, other doses not given
Text: (§2) All animals were handled in strict accordance with good animal practice as defined by the relevant national and local animal welfare bodies. SCID and SCID/beige C.B-17 mice were provided by Harlan Laboratories or Charles River Laboratories, and were maintained in pathogen free conditions. For the xenograft experiments, age-matched (9-11 weeks old) females were used. 5×10^6 of MV-4-11 or MOLM-16 cells were suspended in a mixture (1:1, v:v) of PBS with Matrigel (BD Biosciences,) and injected subcutaneously (sc), in a total volume of 100 μL, above the groin on the right hind limb. For MOLM-13 and KG-1 cells, a mixture (3:1, v:v) of PBS and Matrigel HC (BD Bioscience,) was used to inject 5 × 10^6 of cell per mouse subcutaneously (sc), in a total volume of 100 μL. When tumors reached 100-130 mm^3, mice were randomized into uniform groups (6-9 mice per group) and subsequently administered the compound. […] At the end of the experiment, mice were anesthetized with isofluran and blood samples for total cell counts and biochemistry were obtained by retro-orbital bleeding. […] 5×10^6 cells suspended in a mixture (3:1, v:v) of PBS and Matrigel were injected as described above. […] Tumor volume was monitored every second day and calculated using the formula: TV = (a^2×b)/2, where “a” is the short axis in millimeters, and “b” is the long axis in millimeters. Body weight was assessed every day.

MOLM-16 (FLT3-WT) tumor = assay: MOLM-16 subcutaneous xenograft, single agent; type: in vivo, SCID/beige mice
Text: All animals were handled in strict accordance with good animal practice as defined by the relevant national and local animal welfare bodies. SCID and SCID/beige C.B-17 mice were provided by Harlan Laboratories or Charles River Laboratories, and were maintained in pathogen free conditions. For the xenograft experiments, age-matched (9-11 weeks old) females were used. 5×10^6 of MV-4-11 or MOLM-16 cells were suspended in a mixture (1:1, v:v) of PBS with Matrigel (BD Biosciences,) and injected subcutaneously (sc), in a total volume of 100 μL, above the groin on the right hind limb. For MOLM-13 and KG-1 cells, a mixture (3:1, v:v) of PBS and Matrigel HC (BD Bioscience,) was used to inject 5 × 10^6 of cell per mouse subcutaneously (sc), in a total volume of 100 μL. When tumors reached 100-130 mm^3, mice were randomized into uniform groups (6-9 mice per group) and subsequently administered the compound. […] At the end of the experiment, mice were anesthetized with isofluran and blood samples for total cell counts and biochemistry were obtained by retro-orbital bleeding. […] 5×10^6 cells suspended in a mixture (3:1, v:v) of PBS and Matrigel were injected as described above. When the tumor volume reached ~120 mm^3, mice were randomized into uniform groups (5 mice per group) and the compound then administered. […] Tumor volume was monitored every second day and calculated using the formula: TV = (a^2×b)/2, where “a” is the short axis in millimeters, and “b” is the long axis in millimeters. Body weight was assessed every day.

[3] = Pharmacokinetics after oral and intravenous administration; type: in vivo, dogs (Beagle); details: male, Beagle, plasma, Dog, Dose PO/IV 5/1 mg/kg
Experimental: therapeutic potential in acute myeloid leukemia
sheet for further calculations.
Three male Beagle dogs were administered

[4] = Metabolic stability, liver S9 fraction; type: in vitro ADME; details: Dog, 37 °C, read-out: Liver S9 fraction t1/2 (converted)
KG-1 (FLT3-WT) tumor = assay: KG-1 subcutaneous xenograft; type: in vivo; details: KG-1, SCID mice; doses not given
Text: as §2

PIM2 = PIM2 (Homo sapiens, UniProt Q9P1W9); assay: KINOMEscan Kd (DiscoverX); type: binding
CYP2C9 = molecular target: T1, CYP2C9 (Homo sapiens, UniProt P11712); assay: CYP isoforms inhibition; type: in vitro ADME; details: 5-dose, 3-fold dilution starting at 30 µM
T1 construct: Cambridge Bioscience Limited (ran the assay)
Experimental: or absence of enzyme cofactors. The assay was performed microsomes. (Supplementary Table 7).
with the respective reference samples (i.e. without measured at Cambridge Bioscience Limited (except
cofactors). After incubation, drug transformation by liver CYP1A2 inhibition which was measured in-house). […]
The analysis of two standard compounds (i.e. positive a very weak potential for CYP inhibition with IC50
and negative controls) was included. […]

MOLM-13 = assay: MTS viability assay, 72 h; details: Homo sapiens, MOLM-13, 72 h
Experimental: as §4

GDM-1 = assay: MTS viability assay, 72 h; details: Homo sapiens, GDM-1, 72 h
Experimental: as §4

EOL-1 = assay: MTS viability assay, 72 h; details: Homo sapiens, EOL1, 72 h
Experimental: as §4

[5] = tested on: S6 phosphorylation (Ser235/236) in KG-1 cells; assay: S6 phosphorylation, flow cytometry; type: cell-based; details: Homo sapiens; KG-1, 4 hours
Experimental: (§3) For biomarker experiments, MV-4-11, MOLM-13 and KG-1 cells were seeded at 1 × 10^6 in 3 ml of medium, while MOLM-16 cells were seeded at 1 × 10^6 in 4 ml of medium and left for ~ 18 hours (37°C, 5% CO2). […] Final concertation of DMSO was 0.1%. After 4h of incubation cells were harvested, centrifuged and washed with ice-cold PBS. Cells were fixed with 4% paraformaldehyde buffered with PBS and permeabilized with 90% methanol. Cells were incubated with primary antibody (S6 phopspho-Ser235/236, Cell Signaling, Cat. No: 4856) diluted 1:200 in 0.5% BSA/PBS. […] Cells were analyzed on Flow Cytometer BD LSR II with an excitation wavelength of 488 nm and peak emission 590 nm.

[6] = tested on: S6 phosphorylation (Ser235/236) in MV-4-11 cells; assay: S6 phosphorylation, flow cytometry; type: cell-based; details: Homo sapiens, MV4-11; MV-4-11, 4 hours
Experimental: as §3

[7] = tested on: S6 phosphorylation (Ser235/236) in MOLM-16 cells; assay: S6 phosphorylation, flow cytometry; type: cell-based; details: MOLM16; MOLM-16, 4 hours
Experimental: as §3

[8] = tested on: S6 phosphorylation (Ser235/236) in MOLM-13 cells; assay: S6 phosphorylation, flow cytometry; type: cell-based; details: Homo sapiens; MOLM-13, 4 hours
Experimental: as §3

Sequence of FLT3wt (P36888 27-993): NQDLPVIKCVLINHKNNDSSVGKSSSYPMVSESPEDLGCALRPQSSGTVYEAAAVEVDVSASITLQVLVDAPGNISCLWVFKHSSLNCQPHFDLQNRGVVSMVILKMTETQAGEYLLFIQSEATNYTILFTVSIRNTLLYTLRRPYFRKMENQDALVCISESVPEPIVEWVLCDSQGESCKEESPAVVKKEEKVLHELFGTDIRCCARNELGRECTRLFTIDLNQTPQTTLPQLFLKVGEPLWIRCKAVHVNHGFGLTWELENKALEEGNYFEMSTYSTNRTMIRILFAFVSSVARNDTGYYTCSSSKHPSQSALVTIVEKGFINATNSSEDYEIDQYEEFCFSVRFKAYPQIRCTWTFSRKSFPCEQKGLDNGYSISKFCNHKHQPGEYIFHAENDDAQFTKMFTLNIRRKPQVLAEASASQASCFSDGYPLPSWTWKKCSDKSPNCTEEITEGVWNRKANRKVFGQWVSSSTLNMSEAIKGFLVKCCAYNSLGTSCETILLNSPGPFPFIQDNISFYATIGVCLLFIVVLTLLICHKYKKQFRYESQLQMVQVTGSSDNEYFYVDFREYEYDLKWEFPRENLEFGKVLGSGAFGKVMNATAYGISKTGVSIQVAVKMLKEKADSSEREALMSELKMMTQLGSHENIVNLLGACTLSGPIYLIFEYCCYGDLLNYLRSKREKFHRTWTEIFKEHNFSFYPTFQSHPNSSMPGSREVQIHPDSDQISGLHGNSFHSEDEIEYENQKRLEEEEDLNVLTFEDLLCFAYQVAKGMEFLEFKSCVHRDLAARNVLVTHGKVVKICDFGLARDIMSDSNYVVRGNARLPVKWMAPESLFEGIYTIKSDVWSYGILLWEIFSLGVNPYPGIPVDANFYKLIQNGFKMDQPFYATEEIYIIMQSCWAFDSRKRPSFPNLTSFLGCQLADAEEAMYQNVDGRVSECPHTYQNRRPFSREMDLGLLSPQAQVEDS
T1 sequence (P11712 whole entry, canonical isoform): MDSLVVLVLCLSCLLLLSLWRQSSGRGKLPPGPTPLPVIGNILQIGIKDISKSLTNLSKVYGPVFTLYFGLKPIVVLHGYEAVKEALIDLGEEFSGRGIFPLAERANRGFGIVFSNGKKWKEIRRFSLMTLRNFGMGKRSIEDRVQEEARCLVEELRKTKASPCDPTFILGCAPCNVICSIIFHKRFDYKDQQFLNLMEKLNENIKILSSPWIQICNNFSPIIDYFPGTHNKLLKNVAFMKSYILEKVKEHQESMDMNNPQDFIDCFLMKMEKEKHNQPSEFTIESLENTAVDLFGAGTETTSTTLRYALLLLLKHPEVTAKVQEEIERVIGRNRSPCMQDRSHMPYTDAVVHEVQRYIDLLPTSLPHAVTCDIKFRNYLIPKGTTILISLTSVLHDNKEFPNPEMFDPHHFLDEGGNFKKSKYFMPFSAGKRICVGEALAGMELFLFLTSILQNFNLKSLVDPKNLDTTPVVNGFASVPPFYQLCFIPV
Sequence of PIM2 (Q9P1W9 whole entry, canonical isoform): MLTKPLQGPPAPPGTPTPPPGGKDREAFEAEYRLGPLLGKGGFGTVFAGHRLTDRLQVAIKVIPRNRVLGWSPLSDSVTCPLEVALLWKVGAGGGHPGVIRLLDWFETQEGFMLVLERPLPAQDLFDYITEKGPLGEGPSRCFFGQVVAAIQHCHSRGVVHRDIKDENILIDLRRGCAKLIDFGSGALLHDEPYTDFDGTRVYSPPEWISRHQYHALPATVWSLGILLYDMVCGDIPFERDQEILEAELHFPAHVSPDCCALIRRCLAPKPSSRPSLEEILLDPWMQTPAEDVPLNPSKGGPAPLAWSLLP
Sequence of FLT3 (ITD) (Homo sapiens, UniProt P36888) (P36888 564-993, change not shown): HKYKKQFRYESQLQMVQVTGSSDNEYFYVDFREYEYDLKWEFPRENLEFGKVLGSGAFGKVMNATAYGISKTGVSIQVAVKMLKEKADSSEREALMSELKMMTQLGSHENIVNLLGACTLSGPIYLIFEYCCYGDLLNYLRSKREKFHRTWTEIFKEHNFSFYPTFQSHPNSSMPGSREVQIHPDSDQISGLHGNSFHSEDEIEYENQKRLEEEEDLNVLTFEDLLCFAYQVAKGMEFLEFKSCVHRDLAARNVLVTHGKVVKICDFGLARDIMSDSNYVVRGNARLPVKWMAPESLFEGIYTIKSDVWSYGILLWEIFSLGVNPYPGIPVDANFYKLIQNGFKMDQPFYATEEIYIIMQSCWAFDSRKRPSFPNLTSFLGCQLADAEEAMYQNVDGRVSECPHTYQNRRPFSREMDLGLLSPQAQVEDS
Sequence of FLT3 (ITD) (Homo sapiens, UniProt P36888, ITD) (P36888 564-993, stated change not applied): as the sequence (P36888 564-993, change not shown) above

CC(C)n1c(C2CCNCC2)nc2c([N+](=O)[O-])c(Br)c(Br)cc21 [SEL24-B489, 5,6-dibromo-4-nitro-2-(piperidin-4-yl)-1-(propan-2-yl)-1H-1,3-benzodiazole]
Kd (FLT3 (ITD) [1]): 16 nM | stronger inhibitor binding to FLT3-ITD than to FLT3-WT (FLT3 (ITD) [2]): 10 fold | GI50 (OCI-AML-3): 1590 nM | CC50 (OCI-AML-3; read-out: LC50): 9210 nM | GI50 (SKNO-1): 18 nM | GI50 (MOLM-6): 449 nM | CC50 (MOLM-6; read-out: LC50): 7200 nM | GI50 (KASUMI-6): 17 nM | Kd (FLT3wt): 160 nM | TGI (MOLM-13 xenografts): ~ 50% | TGI (MOLM-16 (FLT3-WT) tumor; MOLM-16, 25 mg/kg BID): ~ 100% | TGI (MOLM-16 (FLT3-WT) tumor; MOLM-16, 50 mg/kg EOD): 79% | TGI (MOLM-16 (FLT3-WT) tumor; MOLM-16, 50 mg/kg QD): ~ 100% | Cmax ([3]; 5 mg/kg): 155 ng/mL | Tmax ([3]; 5 mg/kg): 1.75 h | bioavailability ([3]; 5 mg/kg, read-out: F (bioavailability)): 47% | AUC(0-t) [3]: 3080 ng·h/mL | half-life [3]: 17.6 h | half-life at 1 µM [4]: 6.3 h | TGI (KG-1 (FLT3-WT) tumor): ~ 50% | Kd (PIM2): 2 nM | IC50 (CYP2C9): > 150000 nM | GI50 (MOLM-13): 73 nM | CC50 (MOLM-13; read-out: LC50): 446 nM | GI50 (GDM-1): 680 nM | GI50 (EOL-1): 266 nM | IC50 [5]: 195 nM | IC50 [6]: 13 nM | IC50 [7]: 58 nM | IC50 [8]: 102 nM
